Source: US5241047A, “Synthetic peptides and mixtures thereof for detecting HIV antibodies” (BioChem Pharma Inc., priority 1990, dated 1993)
Positions of bridges follow the written chain, without caps; N, C: chain ends. Residues, ends and D or L forms follow the SMILES beside them.

Key:
Assay type in all cases: binding, human
HIV-1 antibodies = assay: ELISA with peptide-coated wells, HIV-1 antibody positive samples (diluted plasma pool, seroconversion samples)
Method: (§1) A preferred convenient and classical technique for the determination of antibodies against HIV-1 or HIV-2 using a peptide or a peptide mixture of the present invention is an enzyme-linked immunosorbent assay (ELISA). In this assay, for example, a peptide, peptide mixture or combination of the present invention is adsorbed onto, or covalently coupled to, the wells of a microtiter plate. The wells are then treated with the sera or analyte to be tested. After washing, antihuman IgG or antihuman IgM labeled with peroxidase is added to the wells. The determination of the peroxidase is performed with a corresponding substrate, e.g., with o-phenylene diamine. Without departing from the usefulness of the illustrative assay, the peroxidase can be exchanged by another label, e.g., by a radioactive, fluorescence chemiluminescence or infrared emitting label.
(§2) O.D. Values were obtained at 450 nm and the blank values measured with the sample dilution buffer were not subtracted.
(§3) Samples NEIA-2*2, BBI-1-162 to 168, 87B140, 87L139, 87V103 are all negative for HIV antibodies. Sample LSPQ-S9-1 is an early seroconverter (HIV-1). The series labeled CAP-113 to CAP-120 corresponds to a pool of seven HIV-1 positive plasma samples serially diluted with an HIV-negative plasma. CAP-113 is the pool diluted 50-fold with the HIV-negative plasma; CAP-114 is diluted 100-fold; CAP-115 is diluted 200-fold; etc. Similarly, the series labeled CAP-222 to CAP-230 corresponds to a pool of seven HIV-2 confirmed seropositive plasma samples. CAP-222 is diluted by 50 with an HIV-negative plasma; CAP-223 by 100; etc. Before the assay is done, each sample, including the CAP-series, is further diluted by 50 with the sample dilution buffer. In these tests, the cut-off for seropositivity is defined as the sum of the O.D. value for sample NEIA-2*2 plus 0.100.
Each well of the microtiter plate is saturated with 100 μl of a solution containing a peptide or mixture of peptides (5 μg/ml) and left overnight. The wells are emptied and washed twice with a washing buffer (Tris, 0.043M; NaCl, 0.5M; thimerosal, 0.01% w/v; Tween 20, 0.05% v/v; pH 7.4). The wells are then saturated with 0.35 ml of washing buffer for 1 hr. at 37° C. and washed once with the same buffer. Serum samples to be analyzed are diluted with specimen buffer (washing buffer plus casein, 0.05% w/v). The wells are rinsed with washing buffer prior to the addition of the diluted serum sample (0.1 ml). These are left to incubate for 1 hr. at room temperature. The wells are then emptied, washed twice rapidly and then once for two minutes with washing buffer. […] The wells are then emptied and washed twice rapidly with washing buffer and then five times in which the buffer was in contact with the well 2 minutes per washing. The substrate solution (3,3',5,5'-tetramethylbenzidine, 8 mg per ml of DMSO) is diluted with 100 volumes 0.1M citrate-acetate buffer, pH 5.6 containing 0.1% v/v of 30% H2 O2 and added to each well (0.1 ml per well). After 10 minutes the contents of each well is treated with 0.1 ml 2N H2 SO4 and the optical density read at 450 nm. All determinations are done in duplicate. […]

HIV antibodies = assay: ELISA with peptide-coated wells, samples negative for HIV antibodies or not described
Method: as §1, §2, §3
(§4) Each well of the microtiter plate is saturated with 100 μl of a solution containing a peptide or mixture of peptides (5 μg/ml) and left overnight. The wells are emptied and washed twice with a washing buffer (Tris, 0.043M; NaCl, 0.5M; thimerosal, 0.01% w/v; Tween 20, 0.05% v/v; pH 7.4). The wells are then saturated with 0.35 ml of washing buffer for 1 hr. at 37° C. and washed once with the same buffer. Serum samples to be analyzed are diluted with specimen buffer (washing buffer plus casein, 0.05% w/v). The wells are rinsed with washing buffer prior to the addition of the diluted serum sample (0.1 ml). These are left to incubate for 1 hr. at room temperature. The wells are then emptied, washed twice rapidly and then once for two minutes with washing buffer. […] The wells are then emptied and washed twice rapidly with washing buffer and then five times in which the buffer was in contact with the well 2 minutes per washing. The substrate solution (3,3',5,5'-tetramethylbenzidine, 8 mg per ml of DMSO) is diluted with 100 volumes 0.1M citrate-acetate buffer, pH 5.6 containing 0.1% v/v of 30% H2 O2 and added to each well (0.1 ml per well). After 10 minutes the contents of each well is treated with 0.1 ml 2N H2 SO4 and the optical density read at 450 nm. All determinations are done in duplicate.
(§5) Peptide cocktails were prepared by mixing together equal volumes of two peptide solutions each at 10 ug/ml. One cocktail used peptides BCH-87c and BCH-202c and the other cocktail was a mixture of BCH-87ck and BCH-202ck. Each cocktail was used to coat two series of plates as described earlier.

HIV-2 antibodies = assay: ELISA with peptide-coated wells, HIV-2 seropositive plasma pool serially diluted; conditions: Test 314
Method: as §1, §2, §3, §4, §5

[1] = Test 350, sample CAP-10 (progressively higher dilutions)
[2] = Test 350, sample CAP-11 (progressively higher dilutions)
[3] = Test 350, sample CAP-12 (progressively higher dilutions)
[4] = Test 350, sample CAP-13 (progressively higher dilutions)
[5] = Test 350, sample CAP-14 (progressively higher dilutions)
[6] = Test 350, sample CAP-15 (progressively higher dilutions)
[7] = Test 350, sample CAP-16 (progressively higher dilutions)
[8] = Test 350, sample CAP-17 (progressively higher dilutions)
[9] = Test 350, sample CAP-18 (progressively higher dilutions)
[10] = Test 350, sample CAP-19 (progressively higher dilutions)
[11] = Test 350, sample 2-87-L-139 (negative for HIV antibodies)
[12] = Test 350, sample 2-87-V-103 (negative for HIV antibodies)
[13] = Test 350, sample 89-D-307 (not described)
[14] = Test 350, sample NEIA-2*2 (negative for HIV antibodies)

| Compound | O.D. 450 nm (HIV-1 antibodies; [1]) | O.D. 450 nm (HIV-1 antibodies; [2]) | O.D. 450 nm (HIV-1 antibodies; [3]) | O.D. 450 nm (HIV-1 antibodies; [4]) | O.D. 450 nm (HIV-1 antibodies; [5]) | O.D. 450 nm (HIV-1 antibodies; [6]) | O.D. 450 nm (HIV-1 antibodies; [7]) | O.D. 450 nm (HIV-1 antibodies; [8]) | O.D. 450 nm (HIV-1 antibodies; [9]) | O.D. 450 nm (HIV-1 antibodies; [10]) | O.D. 450 nm (HIV antibodies; [11]) | O.D. 450 nm (HIV antibodies; [12]) | O.D. 450 nm (HIV antibodies; [13]) | O.D. 450 nm (HIV antibodies; [14]) | also measured |
| --- | --- | --- | --- | --- | --- | --- | --- | --- | --- | --- | --- | --- | --- | --- | --- |
| CC[C@H](C)[C@H](NC(=O)[C@H](CC(C)C)NC(=O)[C@H](CCCCN)NC(=O)CNC(=O)[C@H](CO)NC(=O)[C@H](C)NC(=O)[C@H](CC(N)=O)NC(=O)[C@H](Cc1c[nH]c2ccccc12)NC(=O)[C@@H]1CCCN1C(=O)[C@@H](NC(=O)[C@H](C)NC(=O)[C@@H](NC(=O)[C@@H](NC(=O)[C@@H]1CSSC[C@H](NC(=O)CNC(=O)[C@H](Cc2c[nH]c3ccccc23)NC(=O)[C@@H](NC(=O)CNC(=O)[C@H](CC(C)C)NC(=O)[C@H](CC(C)C)NC(=O)[C@H](CCC(N)=O)NC(=O)[C@H](CCC(N)=O)NC(=O)[C@H](CC(=O)O)NC(=O)[C@H](CCCCN)NC(=O)[C@H](CC(C)C)NC(=O)[C@H](Cc2ccc(O)cc2)NC(=O)[C@H](CCCNC(=N)N)NC(=O)[C@H](CCC(=O)O)NC(=O)[C@@H](NC(=O)[C@H](C)NC(=O)[C@H](CC(C)C)NC(=O)[C@@H](NC(=O)[C@@H](N)CCCCN)[C@@H](C)CC)C(C)C)[C@@H](C)CC)C(=O)N[C@@H](CO)C(=O)NCC(=O)N[C@@H](CCCCN)C(=O)N[C@@H](CC(C)C)C(=O)N[C@@H]([C@@H](C)CC)C(=O)N1)[C@@H](C)O)[C@@H](C)O)C(C)C)C(=O)O [BCH-408] (H-KILAVERYLKDQQLLGIWGCSGKLICTTAVPWNASGKLI-OH; disulfide 20-26) | > 2.8 | > 2.8 | > 2.8 | 2.319 | 1.433 | 0.835 | 0.455 | 0.244 | 0.156 | 0.102 | 0.025 | 0.014 | 0.029 | 0.035 | sensitivity compared to the other peptides (HIV-1 antibodies; Table 3, versus BCH-87c, BCH-87ck, BCH-266 at progressively higher dilutions): superior sensitivity |
| CC[C@H](C)[C@H](NC(=O)CNC(=O)[C@H](CC(C)C)NC(=O)[C@H](CC(C)C)NC(=O)[C@H](CCC(N)=O)NC(=O)[C@H](CCC(N)=O)NC(=O)[C@H](CC(=O)O)NC(=O)[C@H](CCCCN)NC(=O)[C@H](CC(C)C)NC(=O)[C@H](Cc1ccc(O)cc1)NC(=O)[C@H](CCCNC(=N)N)NC(=O)[C@H](CCC(=O)O)NC(=O)[C@@H](NC(=O)[C@H](C)NC(=O)[C@H](CC(C)C)NC(=O)[C@@H](NC(=O)[C@@H](N)CCCCN)[C@@H](C)CC)C(C)C)C(=O)N[C@@H](Cc1c[nH]c2ccccc12)C(=O)NCC(=O)N[C@H]1CSSC[C@@H](C(=O)N[C@H](C(=O)N[C@H](C(=O)N[C@@H](C)C(=O)N[C@H](C(=O)N2CCC[C@H]2C(=O)N[C@@H](Cc2c[nH]c3ccccc23)C(=O)N[C@@H](CC(N)=O)C(=O)N[C@@H](C)C(=O)N[C@@H](CO)C(=O)O)C(C)C)[C@@H](C)O)[C@@H](C)O)NC(=O)[C@H]([C@@H](C)CC)NC(=O)[C@H](CC(C)C)NC(=O)[C@H](CCCCN)NC(=O)CNC(=O)[C@H](CO)NC1=O [BCH-87ck] (H-KILAVERYLKDQQLLGIWGCSGKLICTTAVPWNAS-OH; disulfide 20-26) | > 2.8 | > 2.8 | 2.735 | 1.676 | 1.089 | 0.643 | 0.274 | 0.191 | 0.114 | 0.053 | 0.409 | 0.015 | 0.022 | 0.034 | O.D. 450 nm (HIV-2 antibodies; sample CAP-222 (HIV-2 positive plasma pool diluted by 50)): 0.069; O.D. 450 nm (HIV-2 antibodies; sample CAP-223 (HIV-2 positive pool diluted by 100)): 0.060; O.D. 450 nm (HIV-2 antibodies; sample CAP-224 (HIV-2 positive pool, serial dilution)): 0.054; O.D. 450 nm (HIV-2 antibodies; sample CAP-225 (HIV-2 positive pool, serial dilution)): 0.050; O.D. 450 nm (HIV-2 antibodies; sample CAP-226 (HIV-2 positive pool, serial dilution)): 0.050; O.D. 450 nm (HIV-2 antibodies; sample CAP-227 (HIV-2 positive pool, serial dilution)): 0.043; O.D. 450 nm (HIV-2 antibodies; sample CAP-228 (HIV-2 positive pool, serial dilution)): 0.042; O.D. 450 nm (HIV-2 antibodies; sample CAP-230 (HIV-2 positive pool, serial dilution)): 0.049; O.D. 450 nm (HIV-1 antibodies; Test 314, sample CAP-113 (HIV-1 positive plasma pool diluted 50-fold)): > 2.8; O.D. 450 nm (HIV-1 antibodies; Test 314, sample CAP-114 (HIV-1 positive pool diluted 100-fold)): > 2.8; O.D. 450 nm (HIV-1 antibodies; Test 314, sample CAP-115 (HIV-1 positive pool diluted 200-fold)): 2.593; O.D. 450 nm (HIV-1 antibodies; Test 314, sample CAP-116 (HIV-1 positive pool, serial dilution)): 1.871; O.D. 450 nm (HIV-1 antibodies; Test 314, sample CAP-117 (HIV-1 positive pool, serial dilution)): 1.158; O.D. 450 nm (HIV-1 antibodies; Test 314, sample CAP-118 (HIV-1 positive pool, serial dilution)): 0.679; O.D. 450 nm (HIV-1 antibodies; Test 314, sample CAP-119 (HIV-1 positive pool, serial dilution)): 0.392; O.D. 450 nm (HIV-1 antibodies; Test 314, sample CAP-120 (HIV-1 positive pool, serial dilution)): 0.229; O.D. 450 nm (HIV antibodies; Test 314, sample BBI-1-162 (negative for HIV antibodies)): 0.015; O.D. 450 nm (HIV antibodies; Test 314, sample BBI-1-169 (not described)): 0.090; O.D. 450 nm (HIV antibodies; Test 314, sample BBI-1-172 (not described)): 0.019; O.D. 450 nm (HIV antibodies; Test 314, sample NEIA-2*2 (negative for HIV antibodies)): 0.050 |
